One test addresses JAK2 (Homo sapiens (Human), UniProt O60674). The experiment in a line: Jak biochemical HTRF assay, JAK2. The conditions noted are these: HTRF biochemical assay, recombinant GST-tagged catalytic domain; read-out: JAK2 IC50.
The target in a further test is JAK1 (Homo sapiens (Human), UniProt P23458). The experiment in a line: Jak biochemical HTRF assay, JAK1. The following applies: HTRF biochemical assay, recombinant GST-tagged catalytic domain; read-out: JAK1 IC50. In general terms: Time-resolved FRET reads energy transfer from a long-lived donor to a nearby acceptor.
Sequence of JAK1 (P23458 875-1153): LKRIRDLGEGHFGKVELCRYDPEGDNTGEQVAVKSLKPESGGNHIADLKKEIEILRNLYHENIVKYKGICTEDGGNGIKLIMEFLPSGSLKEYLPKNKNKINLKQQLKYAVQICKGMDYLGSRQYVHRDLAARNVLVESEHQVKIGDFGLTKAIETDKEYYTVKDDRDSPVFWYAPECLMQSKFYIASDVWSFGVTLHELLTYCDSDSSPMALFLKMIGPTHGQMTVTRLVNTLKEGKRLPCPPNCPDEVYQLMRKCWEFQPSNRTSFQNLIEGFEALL

We go through 24 molecules from patent publication US9725445B2, “Cycloalkyl nitrile pyrazolo pyridones as Janus kinase inhibitors” (Merck Sharp & Dohme Corp., priority 2013, dated 2017).

The term IC50 denotes the point on the concentration scale where inhibition reaches its midpoint.

Sequence of JAK2 (O60674 849-1124): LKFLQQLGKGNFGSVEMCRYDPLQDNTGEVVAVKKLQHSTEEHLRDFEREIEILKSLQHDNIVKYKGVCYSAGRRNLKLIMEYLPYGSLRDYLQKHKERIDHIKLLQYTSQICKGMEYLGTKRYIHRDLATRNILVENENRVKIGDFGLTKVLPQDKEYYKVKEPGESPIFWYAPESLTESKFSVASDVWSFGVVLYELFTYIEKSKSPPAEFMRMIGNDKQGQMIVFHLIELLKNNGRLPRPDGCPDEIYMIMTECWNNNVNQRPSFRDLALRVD

Consider `N#C[C@H]1C[C@H](O)CC[C@@H]1n1nc(Nc2ccc(Cl)cc2)c2c(=O)[nH]ccc21` [Example 3-90, (1S,2S,5R)-2-(3-((4-chlorophenyl)amino)-4-oxo-4,5-dihydro-1H-pyrazolo[4,3-c]pyridin-1-yl)-5-hydroxycyclohexanecarbonitrile], for which the IC50 on JAK2 was determined as 7.3 nM; on JAK1 it was 0.28 nM.
Turning to `N#C[C@H]1CCCC[C@@H]1n1nc(Nc2ccc(Cl)cc2)c2c(=O)[nH]ccc21` [Example 3-91, (1S,2S)-2-(3-((4-chlorophenyl)amino)-4-oxo-4,5-dihydro-1H-pyrazolo[4,3-c]pyridin-1-yl)cyclohexanecarbonitrile], the IC50 at JAK2 is 10.3 nM; at JAK1, 0.45 nM.
For the molecule `N#C[C@H]1CCC[C@@H]1n1nc(Nc2ccnc(F)c2)c2c(=O)[nH]ccc21` [Example 3-92, (1S,2S)-2-{3-[(2-fluoropyridin-4-yl)amino]-4-oxo-4,5-dihydro-1H-pyrazolo[4,3-c]pyridin-1-yl}cyclopentanecarbonitrile], the IC50 on JAK2 is 5.7 nM; on JAK1, 0.64 nM.
As to `N#C[C@@H]1CCC[C@H]1n1nc(Nc2ccnc(F)c2)c2c(=O)[nH]ccc21` [Example 3-93, (1R,2R)-2-{3-[(2-fluoropyridin-4-yl)amino]-4-oxo-4,5-dihydro-1H-pyrazolo[4,3-c]pyridin-1-yl}cyclopentanecarbonitrile], the values for the IC50 at JAK2 and on JAK1 were 48 nM and 12 nM, respectively.
As to `N#C[C@H]1CCC[C@@H]1n1nc(Nc2ccc3c(c2)CN(CC(F)(F)F)C3=O)c2c(=O)[nH]ccc21` [Example 3-97, (1S,2S)-2-(4-oxo-3-{[1-oxo-2-(2,2,2-trifluoroethyl)-2,3-dihydro-1H-isoindol-5-yl]amino}-4,5-dihydro-1H-pyrazolo[4,3-c]pyridin-1-yl)cyclopentanecarbonitrile], the IC50 stood at 0.44 nM on JAK2 and 0.082 nM on JAK1.
On to `N#C[C@H]1CCC[C@@H]1n1nc(Nc2ccc(C(O)C(F)(F)F)cc2)c2c(=O)[nH]ccc21` (stereo partly drawn) [Example 3-98, (1S,2S)-2-(4-oxo-3-{[4-(2,2,2-trifluoro-1-hydroxyethyl)phenyl]amino}-4,5-dihydro-1H-pyrazolo[4,3-c]pyridin-1-yl)cyclopentanecarbonitrile], for which the IC50 is 0.53 nM on JAK2 and 0.075 nM on JAK1.
The corresponding values for `CC(C)(C)N1Cc2cc(Nc3nn([C@H]4CCC[C@@H]4C#N)c4cc[nH]c(=O)c34)ccc2S1(=O)=O` [Example 3-100, (1S,2S)-2-{3-[(2-tert-butyl-1,1-dioxido-2,3-dihydro-1,2-benzisothiazol-5-yl)amino]-4-oxo-4,5-dihydro-1H-pyrazolo[4,3-c]pyridin-1-yl}cyclopentanecarbonitrile] are 0.28 nM and 0.043 nM.
Consider `N#C[C@H]1CCC[C@@H]1n1nc(Nc2ccc3c(c2)CN(CC(F)(F)F)S3(=O)=O)c2c(=O)[nH]ccc21` [Example 3-101, (1S,2S)-2-(3-{[1,1-dioxido-2-(2,2,2-trifluoroethyl)-2,3-dihydro-1,2-benzisothiazol-5-yl]amino}-4-oxo-4,5-dihydro-1H-pyrazolo[4,3-c]pyridin-1-yl)cyclopentanecarbonitrile], for which the half-maximal inhibitory concentration (IC50) turned out to be 0.5 nM on JAK2 and 0.056 nM on JAK1.
Taken in the same sequence, the figures for `CN1Cc2cc(Nc3nn([C@H]4CCC[C@@H]4C#N)c4cc[nH]c(=O)c34)ccc2S1(=O)=O` [Example 3-102, (1S,2S)-2-{3-[(2-methyl-1,1-dioxido-2,3-dihydro-1,2-benzisothiazol-5-yl)amino]-4-oxo-4,5-dihydro-1H-pyrazolo[4,3-c]pyridin-1-yl}cyclopentanecarbonitrile] were 0.66 nM and 0.051 nM.
The corresponding values for `CC(C)S(=O)(=O)c1ccc(Nc2nn([C@H]3CCC[C@@H]3C#N)c3cc[nH]c(=O)c23)cc1` [Example 3-105, (1S,2S)-2-[3-({4-[(1-methylethyl)sulfonyl]phenyl}amino)-4-oxo-4,5-dihydro-1H-pyrazolo[4,3-c]pyridin-1-yl]cyclopentanecarbonitrile] are 0.4 nM and 0.11 nM.
Taken in the same sequence, the figures for `CC(C)(C)S(=O)(=O)c1ccc(Nc2nn([C@H]3CCC[C@@H]3C#N)c3cc[nH]c(=O)c23)cc1` [Example 3-106, (1S,2S)-2-(3-{[4-(tert-butylsulfonyl)phenyl]amino}-4-oxo-4,5-dihydro-1H-pyrazolo[4,3-c]pyridin-1-yl)cyclopentanecarbonitrile] were 0.36 nM and 0.12 nM.
`CC(C)(C)NS(=O)(=O)c1ccc(Nc2nn([C@H]3CCC[C@@H]3C#N)c3cc[nH]c(=O)c23)cc1` [Example 3-107, N-tert-butyl-4-({1-[(1S,2S)-2-cyanocyclopentyl]-4-oxo-4,5-dihydro-1H-pyrazolo[4,3-c]pyridin-3-yl}amino)benzenesulfonamide]: the figures for the IC50 at JAK2 and on JAK1 were 0.48 nM and 0.22 nM, respectively.
Taken in the same sequence, the figures for `N#Cc1ccc(Nc2nn([C@H]3CCC[C@@H]3C#N)c3cc[nH]c(=O)c23)cc1` [Example 3-112, 4-({1-[(1S,2S)-2-cyanocyclopentyl]-4-oxo-4,5-dihydro-1H-pyrazolo[4,3-c]pyridin-3-yl}amino)benzonitrile] were 1.2 nM and 0.25 nM.
Taken in the same sequence, the figures for `CC(C)(C)NS(=O)(=O)c1ccc(Nc2nn([C@H]3CCCC[C@@H]3C#N)c3cc[nH]c(=O)c23)cc1` [Example 3-140, N-tert-butyl-4-({1-[(1S,2S)-2-cyanocyclohexyl]-4-oxo-4,5-dihydro-1H-pyrazolo[4,3-c]pyridin-3-yl}amino)benzenesulfonamide] were 0.43 nM and 0.17 nM.
Taken in the same sequence, the figures for `CN(C(C)(C)C)S(=O)(=O)c1ccc(Nc2nn([C@H]3CCCC[C@@H]3C#N)c3cc[nH]c(=O)c23)cc1` [Example 3-142, N-tert-butyl-4-({1-[(1S,2S)-2-cyanocyclohexyl]-4-oxo-4,5-dihydro-1H-pyrazolo[4,3-c]pyridin-3-yl}amino)-N-methylbenzenesulfonamide] were 0.68 nM and 0.29 nM.
For the molecule `CNS(=O)(=O)c1ccc(Nc2nn([C@H]3CCCC[C@@H]3C#N)c3cc[nH]c(=O)c23)cc1` [Example 3-144, 4-({1-[(1S,2S)-2-cyanocyclohexyl]-4-oxo-4,5-dihydro-1H-pyrazolo[4,3-c]pyridin-3-yl}amino)-N-methylbenzenesulfonamide], the IC50 on JAK2 worked out at 0.59 nM; at JAK1, 0.099 nM.
The corresponding values for `COCCn1cc(-c2ccc(Nc3nn([C@H]4CCCC[C@@H]4C#N)c4cc[nH]c(=O)c34)cc2)cn1` [Example 3-145, (1S,2S)-2-[3-({4-[1-(2-methoxyethyl)-1H-pyrazol-4-yl]phenyl}amino)-4-oxo-4,5-dihydro-1H-pyrazolo[4,3-c]pyridin-1-yl]cyclohexanecarbonitrile] are 1.8 nM and 0.12 nM.
Take `Cn1cc(-c2ccc(Nc3nn([C@H]4CCCC[C@@H]4C#N)c4cc[nH]c(=O)c34)cc2Cl)cn1` [Example 3-146, (1S,2S)-2-(3-{[3-chloro-4-(1-methyl-1H-pyrazol-4-yl)phenyl]amino}-4-oxo-4,5-dihydro-1H-pyrazolo[4,3-c]pyridin-1-yl)cyclohexanecarbonitrile]: the IC50 was determined as 6.4 nM on JAK2 and 0.29 nM at JAK1.
The corresponding values for `CC(C)(c1ccc(Nc2nn([C@H]3CCCC[C@@H]3C#N)c3cc[nH]c(=O)c23)cc1)n1ccnn1` [Example 3-147, (1S,2S)-2-[3-({4-[1-methyl-1-(1H-1,2,3-triazol-1-yl)ethyl]phenyl}amino)-4-oxo-4,5-dihydro-1H-pyrazolo[4,3-c]pyridin-1-yl]cyclohexanecarbonitrile] are 0.5 nM and 0.17 nM.
Taken in the same sequence, the figures for `CC(C)[C@H](C)N1Cc2ccc(Nc3nn([C@H]4CCCC[C@@H]4C#N)c4cc[nH]c(=O)c34)cc2C1` [Example 3-148, (1S,2S)-2-[3-({2-[(1S)-1,2-dimethylpropyl]-2,3-dihydro-1H-isoindol-5-yl}amino)-4-oxo-4,5-dihydro-1H-pyrazolo[4,3-c]pyridin-1-yl]cyclohexanecarbonitrile] were 0.43 nM and 0.31 nM.
Turning to `CC(C)[C@@H](C)N1Cc2ccc(Nc3nn([C@H]4CCCC[C@@H]4C#N)c4cc[nH]c(=O)c34)cc2C1` [Example 3-149, (1S,2S)-2-[3-({2-[(1R)-1,2-dimethylpropyl]-2,3-dihydro-1H-isoindol-5-yl}amino)-4-oxo-4,5-dihydro-1H-pyrazolo[4,3-c]pyridin-1-yl]cyclohexanecarbonitrile], the figures for the IC50 on JAK2 and at JAK1 were 0.61 nM and 0.48 nM, respectively.
Taken in the same sequence, the figures for `CC(C)(C)OC(=O)CCN1Cc2cc(Nc3nn([C@H]4CCCC[C@@H]4C#N)c4cc[nH]c(=O)c34)ccc2S1(=O)=O` [Example 3-150, tert-butyl 3-[5-({1-[(1S,2S)-2-cyanocyclohexyl]-4-oxo-4,5-dihydro-1H-pyrazolo[4,3-c]pyridin-3-yl}amino)-1,1-dioxido-1,2-benzisothiazol-2(3H)-yl]propanoate] were 0.55 nM and 0.066 nM.
Take `CC(C)(C)OC(=O)CN1Cc2cc(Nc3nn([C@H]4CCCC[C@@H]4C#N)c4cc[nH]c(=O)c34)ccc2S1(=O)=O` [Example 3-151, tert-butyl [5-({1-[(1S,2S)-2-cyanocyclohexyl]-4-oxo-4,5-dihydro-1H-pyrazolo[4,3-c]pyridin-3-yl}amino)-1,1-dioxido-1,2-benzisothiazol-2(3H)-yl]acetate]: the values for the IC50 on JAK2 and at JAK1 were 0.52 nM and 0.041 nM, respectively.
The corresponding values for `CC(C)(C)OC(=O)C(C)(C)N1Cc2cc(Nc3nn([C@H]4CCCC[C@@H]4C#N)c4cc[nH]c(=O)c34)ccc2S1(=O)=O` [Example 3-152, tert-butyl 2-[5-({1-[(1S,2S)-2-cyanocyclohexyl]-4-oxo-4,5-dihydro-1H-pyrazolo[4,3-c]pyridin-3-yl}amino)-1,1-dioxido-1,2-benzisothiazol-2(3H)-yl]-2-methylpropanoate] are 0.77 nM and 0.1 nM.
